Laboratory results published in patent publication US20240228518A1, “NOVEL ORGANOTIN SILICATE COMPOUNDS, PREPARATION METHODS THEREOF AND PHOTORESIST COMPOSITION CONTAINING THE SAME” (JSI SILICONE CO., priority 2022, published 2024).

Tests used:
[1] = Stability in water (precipitation) of solution with acetic acid; type: physicochemical
Protocol: Since the photoresist composition included acetic acid, stability of tetrakis(triacetoxystannyl) silicate in water was able to be improved. When water was added at 5% to a 5% tetrakis(triacetoxystannyl) silicate solution, it was confirmed that precipitation occurred immediately. However, when acetic acid was added, precipitation was able to be prevented. It was confirmed that precipitation occurred after 3 minutes in a 10% acetic acid solution, after 3 hours in a 20% solution, and after 5 days in a 30% solution. Besides, the amount of precipitation was decreased as the acetic acid was added. Regarding a large amount of acetic acid, since a hydrolysis rate of an acetoxy group decreased according to le Chatelier's law, stability in water was improved.

[2] = Solubility experiment in various solvents; type: physicochemical
Text: [Experimental Example 1] Solubility Experiment of tetrakis(triphenylstannyl) Silicate
For manufacturing a thin film including the tetrakis(triphenylstannyl) silicate compound prepared in Example 1, solubility in various solvents was experimented and is shown in the following Tables 2 and 3: […]

SMILES	Time until precipitation occurred ([1]; water added at 5% to 5% solution, no acetic acid)	Time until precipitation occurred ([1]; water added, 10% acetic acid solution)	Time until precipitation occurred ([1]; water added, 20% acetic acid solution)	Time until precipitation occurred ([1]; water added, 30% acetic acid solution)	Solubility ([2]; Chloroform)	Solubility ([2]; Ethyl lactate (EL))	Solubility ([2]; THF)	Solubility ([2]; gamma-Butyrolactone (GBL))
CC(=O)[O][Sn]([O]C(C)=O)([O]C(C)=O)[O][Si]([O][Sn]([O]C(C)=O)([O]C(C)=O)[O]C(C)=O)([O][Sn]([O]C(C)=O)([O]C(C)=O)[O]C(C)=O)[O][Sn]([O]C(C)=O)([O]C(C)=O)[O]C(C)=O [Example 14, tetrakis(triacetoxystannyl) silicate]	immediately	3 min	180 min	7200 min				
c1cc[c]([Sn]([O][Si]([O][Sn]([c]2ccccc2)([c]2ccccc2)[c]2ccccc2)([O][Sn]([c]2ccccc2)([c]2ccccc2)[c]2ccccc2)[O][Sn]([c]2ccccc2)([c]2ccccc2)[c]2ccccc2)([c]2ccccc2)[c]2ccccc2)cc1 [Example 1, tetrakis(triphenylstannyl) silicate]					highest solubilites and ◯	Δ	highest solubilites and ◯	Δ
